The values that follow are results of earlier work, collected in patent US11136251B2, “Compositions, methods, and devices for capturing phosphate from water” (REGENTS OF THE UNIVERSITY OF MINNESOTA, priority 2017, dated 2021).

As to `O=C([O-])CN(CCN(CC(=O)[O-])CC(=O)O)CCN(CC(=O)[O-])CC(=O)O.[Gd+3]` [Gd-DTPA], the “selectivity for HPO4^2− over HCO3^− / bicarbonate binding” value was “two-fold”.
